In patent US12178842B2, “PCSK9 antagonist compounds” (MERCK SHARP & DOHME LLC, priority 2019, dated 2024):

How the values were obtained:
Assay type in all cases: binding
[1] = target: T1, PCSK9 (Homo sapiens, UniProt Q8NBP7); test: PCSK9 Alexa FRET Standard TR-FRET assay; conditions: Ki calculated from IC50 and KD of AF cyclic peptide Reagent A; 0.5 nM PCSK9, 20 nM AF cyclic peptide; read-out: Alexa FRET Stdt TR-FRET
T1 construct: biotin (biotinylated); purchased
Protocol: A solution containing 1 nM biotinylated PCSK9+2.5 nM Lance Streptavidin Europium (Strep-Eu) is made in 50 mM HEPES pH 7.4, 0.15 M NaCl, 5 mM CaCl2, 0.01% BSA, and 0.01% Surfactant P20. A separate solution containing 40 nM of the AlexaFluor tagged cyclic peptide is made in the same buffer system. An Echo is used to transfer 0.750 ul of compound to an assay plate followed by the addition of 15 ul of PCSK9+Stept-Eu and 15 ul of AF peptide. The final assay volume is 30.750 ul containing 0.5 nM PCSK9, 1.25 nM Strep-Eu, and 20 nM AF cyclic peptide. The reaction is incubated at room temperature for at least two hours prior to fluorescence measurements using an Envision Multilabel Reader. IC50 values are determined by fitting data to a sigmoidal dose-response curve using nonlinear regression. Ki is then calculated from the Ic50 and the KD of AF cyclic peptide. Counts (B-counts) of the europium-labeled PCSK9 are followed to observe if compounds are adversely PCSK9. A fall off of the B-counts likely indicates a false positive of inhibition. Data from this procedure is reported as “A=‘numerical value’ (nanomolar)”

[2] = target: T1, PCSK9; test: PCSK9 Alexa FRET Ultra TR-FRET assay
Protocol: A separate solution containing 1920 nM of the AlexaFluor tagged cyclic peptide is made in the same buffer system. […] The reaction is incubated at room temperature for at least two hours prior to fluorescence measurements using an Envision Multilabel Reader. IC50 values are determined by fitting data to a sigmoidal dose-response curve using nonlinear regression. Ki is then calculated from the Ic50 and the KD of AF cyclic peptide. Counts (B-counts) of the europium-labeled PCSK9 are followed to observe if compounds are adversely affecting PCSK9. A fall off of the B-counts is likely indicates a false positive of inhibition. Data from this procedure is reported as “Ki Ultra=‘numerical value’ (data reported is nanomolar)”

[3] = target: T1, PCSK9; test: PCSK9 Alexa FRET Plus TR-FRET assay
Protocol: A separate solution containing 1920 nM of the AlexaFluor tagged cyclic peptide is made in the same buffer system. […] The reaction is incubated at room temperature for at least two hours prior to fluorescence measurements using an Envision Multilabel Reader. IC50 values are determined by fitting data to a sigmoidal dose-response curve using nonlinear regression. Ki is then calculated from the Ic50 and the KD of AF cyclic peptide. Counts (B-counts) of the europium-labeled PCSK9 are followed to observe if compounds are adversely affecting PCSK9. A fall off of the B-counts is likely indicates a false positive of inhibition. Data from this procedure is reported as “P=‘numerical value’ (nanomolar)”

[4] = Ki Ultra, calculated from IC50 and KD of AF cyclic peptide, 0.5 nM PCSK9, 960 nM AF cyclic peptide, read-out: Alexa FRET Ultra TR-FRET
[5] = Ki calculated from IC50 and KD of AF cyclic peptide Reagent B, 0.5 nM PCSK9, 960 nM AF cyclic peptide, read-out: Alexa FRET Plus TR-FRET

T1 sequence (Q8NBP7 153-692): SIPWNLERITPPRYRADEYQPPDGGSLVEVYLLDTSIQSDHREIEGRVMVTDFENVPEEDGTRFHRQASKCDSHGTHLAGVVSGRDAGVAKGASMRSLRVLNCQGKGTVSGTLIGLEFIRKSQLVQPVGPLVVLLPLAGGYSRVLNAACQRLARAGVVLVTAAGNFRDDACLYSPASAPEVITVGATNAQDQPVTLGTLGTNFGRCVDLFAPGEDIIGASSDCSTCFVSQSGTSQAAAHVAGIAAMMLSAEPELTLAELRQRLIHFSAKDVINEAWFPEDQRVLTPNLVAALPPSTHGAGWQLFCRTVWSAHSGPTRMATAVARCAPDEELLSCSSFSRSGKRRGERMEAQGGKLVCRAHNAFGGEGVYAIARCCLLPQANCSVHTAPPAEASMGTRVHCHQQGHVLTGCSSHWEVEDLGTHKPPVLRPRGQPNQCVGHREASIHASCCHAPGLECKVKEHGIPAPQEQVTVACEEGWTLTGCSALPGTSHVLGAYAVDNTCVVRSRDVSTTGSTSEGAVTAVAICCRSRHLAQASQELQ

Ki [2, 4]	Ki [3, 5]	SMILES	Ki [1]	Ki [2]	Ki [3]
–	–	COc1ccc(C[C@@H]2NC(=O)[C@H]([C@@H](C)O)NC(=O)[C@@H]3[C@@H]4CCN3C(=O)[C@@H]3Cc5cn(c6ccc(F)cc56)CCCCCCN(Cc5ccc(cc5)CCNC(=O)[C@]5(C)CCCN5C2=O)C(=O)CCC(=O)N[C@@H](C)C(=O)N[C@H](CNC(=O)COCCOCCNC(=O)COCCOCCNC(=O)CC[C@H](NC(=O)CCCCC[N+](C)(C)CCNC(=O)CCCCCCCCCCCCCCCCC(=O)O)C(=O)O)C(=O)N[C@@H](Cc2cccc(c2)CNC(=O)CO4)C(=O)N3)cc1 [Ex-5]	< 1260 pM	7 pM	< 6 pM
–	–	COc1ccc(C[C@@H]2NC(=O)[C@H]([C@@H](C)O)NC(=O)[C@@H]3[C@@H]4CCN3C(=O)[C@@H]3Cc5cn(c6ccc(F)cc56)CCCCCCN(Cc5ccc(cc5)CCNC(=O)[C@]5(C)CCCN5C2=O)C(=O)CCC(=O)N[C@@H](C)C(=O)N[C@H](CNC(=O)COCCOCCNC(=O)CCCCC[N+](C)(C)CCNC(=O)COCCOCCNC(=O)COCCOCCNC(=O)CC[C@H](NC(=O)CCCCCCCCCCCCCCCCC(=O)O)C(=O)O)C(=O)N[C@@H](Cc2cccc(c2)CNC(=O)CO4)C(=O)N3)cc1 [Ex-6]	< 1260 pM	12 pM	9 pM
–	–	COc1ccc(C[C@@H]2NC(=O)[C@H]([C@@H](C)O)NC(=O)[C@@H]3[C@@H]4CCN3C(=O)[C@@H]3Cc5cn(c6ccc(F)cc56)CCCCCCN(Cc5ccc(cc5)CCNC(=O)[C@]5(C)CCCN5C2=O)C(=O)CCC(=O)N[C@@H](C)C(=O)N[C@H](CNC(=O)CCOCCOCC[N+](C)(C)CCNC(=O)CC[C@H](NC(=O)CCCCCCCCCCCCCCCCC(=O)O)C(=O)O)C(=O)N[C@@H](Cc2cccc(c2)CNC(=O)CO4)C(=O)N3)cc1 [Ex-7]	< 1260 pM	13 pM	8 pM
–	–	COc1ccc(C[C@@H]2NC(=O)[C@H]([C@@H](C)O)NC(=O)[C@@H]3[C@@H]4CCN3C(=O)[C@@H]3Cc5cn(c6ccc(F)cc56)CCCCCCN(Cc5ccc(cc5)CCNC(=O)[C@]5(C)CCCN5C2=O)C(=O)CCC(=O)N[C@@H](C)C(=O)N[C@H](CNC(=O)CC[C@H](NC(=O)CCOCCOCC[N+](C)(C)CCNC(=O)COCCOCCNC(=O)COCCOCCNC(=O)CC[C@H](NC(=O)CCCCCCCCCCCCCCCCC(=O)O)C(=O)O)C(=O)O)C(=O)N[C@@H](Cc2cccc(c2)CNC(=O)CO4)C(=O)N3)cc1 [Ex-8]	< 1260 pM	8 pM	16 pM
–	–	COc1ccc(C[C@@H]2NC(=O)[C@H]([C@@H](C)O)NC(=O)[C@@H]3[C@@H]4CCN3C(=O)[C@@H]3Cc5cn(c6ccc(F)cc56)CCCCCCN(Cc5ccc(cc5)CCNC(=O)[C@]5(C)CCCN5C2=O)C(=O)CCC(=O)N[C@@H](C)C(=O)N[C@H](CNC(=O)COCCOCCNC(=O)COCCOCCNC(=O)CC[C@H](NC(=O)CC[C@H](NC(=O)CCOCCOCC[N+](C)(C)CCNC(=O)CCCCCCCCCCCCCCCCC(=O)O)C(=O)O)C(=O)O)C(=O)N[C@@H](Cc2cccc(c2)CNC(=O)CO4)C(=O)N3)cc1 [Ex-9]	< 1260 pM	7 pM	< 6 pM
–	–	COc1ccc(C[C@@H]2NC(=O)[C@H]([C@@H](C)O)NC(=O)[C@@H]3[C@@H]4CCN3C(=O)[C@@H]3Cc5cn(c6ccc(F)cc56)CCCCCCN(Cc5ccc(cc5)CCNC(=O)[C@]5(C)CCCN5C2=O)C(=O)CCC(=O)N[C@@H](C)C(=O)N[C@H](CNC(=O)CCOCCOCC[N+](C)(C)CCNC(=O)COCCOCCNC(=O)COCCOCCNC(=O)CC[C@H](NC(=O)CC[C@H](NC(=O)CCCCCCCCCCCCCCCCC(=O)O)C(=O)O)C(=O)O)C(=O)N[C@@H](Cc2cccc(c2)CNC(=O)CO4)C(=O)N3)cc1 [Ex-10]	< 1260 pM	6 pM	8 pM
6 pM	7 pM	COc1ccc(C[C@@H]2NC(=O)[C@H]([C@@H](C)O)NC(=O)[C@@H]3[C@@H]4CCN3C(=O)[C@@H]3Cc5cn(c6ccc(F)cc56)CCCCCCN(Cc5ccc(cc5)CCNC(=O)[C@]5(C)CCCN5C2=O)C(=O)CCC(=O)N[C@@H](C)C(=O)N[C@H](CNC(=O)CCOCCOCC[N+](C)(C)CCNC(=O)CCOCCOCC[N+](C)(C)CCNC(=O)COCCOCCNC(=O)COCCOCCNC(=O)CC[C@H](NC(=O)CC[C@H](NC(=O)CCCCCCCCCCCCCCC(=O)O)C(=O)O)C(=O)O)C(=O)N[C@@H](Cc2cccc(c2)CNC(=O)CO4)C(=O)N3)cc1 [Ex-11]	< 1260 pM	–	–
7 pM	14 pM	COC(=O)CCCCCCCCCCCCCCCCC(=O)N[C@@H](CCC(=O)NCCOCCOCC(=O)NCCOCCOCC(=O)NCC[N+](C)(C)CCCCCC(=O)NC[C@H]1NC(=O)[C@H](C)NC(=O)CCC(=O)N2CCCCCCn3cc(c4cc(F)ccc43)C[C@@H]3NC(=O)[C@H](Cc4cccc(c4)CNC(=O)CO[C@H]4CCN(C3=O)[C@@H]4C(=O)N[C@@H]([C@@H](C)O)C(=O)N[C@@H](Cc3ccc(OC)cc3)C(=O)N3CCC[C@@]3(C)C(=O)NCCc3ccc(cc3)C2)NC1=O)C(=O)OC [Ex-12]	< 1260 pM	–	–
3 pM	< 6 pM	COc1ccc(C[C@@H]2NC(=O)[C@H]([C@@H](C)O)NC(=O)[C@@H]3[C@@H]4CCN3C(=O)[C@@H]3Cc5cn(c6ccc(F)cc56)CCCCCCN(Cc5ccc(cc5)CCNC(=O)[C@]5(C)CCCN5C2=O)C(=O)CCC(=O)N[C@@H](C)C(=O)N[C@H](CNC(=O)COCCOCC[N+](C)(C)CCOCCNC(=O)COCCOCCNC(=O)COCCOCCNC(=O)CC[C@H](NC(=O)CC[C@H](NC(=O)CCCCCCCCCCCCCCCCC(=O)O)C(=O)O)C(=O)O)C(=O)N[C@@H](Cc2cccc(c2)CNC(=O)CO4)C(=O)N3)cc1 [Ex-13]	< 1260 pM	–	–
–	–	COc1ccc(C[C@@H]2NC(=O)[C@H]([C@@H](C)O)NC(=O)[C@@H]3[C@@H]4CCN3C(=O)[C@@H]3Cc5cn(c6ccc(F)cc56)CCCCCCN(Cc5ccc(cc5)CCNC(=O)[C@]5(C)CCCN5C2=O)C(=O)CCC(=O)N[C@@H](C)C(=O)N[C@H](CNC(=O)CCC[N+](C)(C)CCNC(=O)COCCOCCNC(=O)CC[C@H](NC(=O)CC[C@H](NC(=O)CCCCCCCCCCCCCCCCC(=O)O)C(=O)O)C(=O)O)C(=O)N[C@@H](Cc2cccc(c2)CNC(=O)CO4)C(=O)N3)cc1 [Ex-14]	< 1260 pM	5 pM	< 6 pM
–	–	COc1ccc(C[C@@H]2NC(=O)[C@H]([C@@H](C)O)NC(=O)[C@@H]3[C@@H]4CCN3C(=O)[C@@H]3Cc5cn(c6ccc(F)cc56)CCCCCCN(Cc5ccc(cc5)CCNC(=O)[C@]5(C)CCCN5C2=O)C(=O)CCC(=O)N[C@@H](C)C(=O)N[C@H](CNC(=O)CCOCCOCC[N+](C)(C)CCNC(=O)COCCOCCNC(=O)COCCOCCNC(=O)C[C@H](NC(=O)CCCCCCCCCCCCCCCCC(=O)O)C(=O)O)C(=O)N[C@@H](Cc2cccc(c2)CNC(=O)CO4)C(=O)N3)cc1 [Ex-15]	< 1260 pM	5 pM	< 6 pM
–	–	COc1ccc(C[C@@H]2NC(=O)[C@H]([C@@H](C)O)NC(=O)[C@@H]3[C@@H]4CCN3C(=O)[C@@H]3Cc5cn(c6ccc(F)cc56)CCCCCCN(Cc5ccc(cc5)CCNC(=O)[C@]5(C)CCCN5C2=O)C(=O)CCC(=O)N[C@@H](C)C(=O)N[C@H](CNC(=O)CCOCCOCC[N+](C)(C)CCNC(=O)COCCOCCNC(=O)COCCOCCNC(=O)CC(CC(=O)O)NC(=O)CC[C@H](NC(=O)CCCCCCCCCCCCCCCCC(=O)O)C(=O)O)C(=O)N[C@@H](Cc2cccc(c2)CNC(=O)CO4)C(=O)N3)cc1 (stereo partly drawn) [Ex-16]	< 1260 pM	8 pM	14 pM
18 pM	16 pM	COc1ccc(C[C@@H]2NC(=O)[C@H]([C@@H](C)O)NC(=O)[C@@H]3[C@@H]4CCN3C(=O)[C@@H]3Cc5cn(c6ccc(F)cc56)CCCCCCN(Cc5ccc(cc5)CCNC(=O)[C@]5(C)CCCN5C2=O)C(=O)CCC(=O)N[C@@H](C)C(=O)N[C@H](CN(CCC[N+](C)(C)C)C(=O)COCCOCCNC(=O)COCCOCCNC(=O)CC[C@H](NC(=O)CCCCCCCCCCCCCCCCC(=O)O)C(=O)O)C(=O)N[C@@H](Cc2cccc(c2)CNC(=O)CO4)C(=O)N3)cc1 [Ex-17]	< 1260 pM	–	–
21 pM	23 pM	COc1ccc(C[C@@H]2NC(=O)[C@H]([C@@H](C)O)NC(=O)[C@@H]3[C@@H]4CCN3C(=O)[C@@H]3Cc5cn(c6ccc(F)cc56)CCCCCCN(Cc5ccc(cc5)CCNC(=O)[C@]5(C)CCCN5C2=O)C(=O)CCC(=O)N[C@@H](C)C(=O)N[C@H](CNC(=O)COCCOCCNC(=O)COCCOCCNC(=O)CC[C@H](NC(=O)CCCCCCCCCCCCCCCCC(=O)O)C(=O)O)C(=O)N[C@@H](Cc2cccc(c2)CNC(=O)CO4)C(=O)N3)cc1 [Ex-18]	< 1260 pM	–	–
